Measured values from patent US20230285441A1, “TREATMENT OF C[…] AURANOFIN” (GEORGIA STATE UNIVERSITY RESEARCH FOUNDATION, INC., priority 2020, published 2023).

Experiments:
[1] = tested on: SARS-CoV-2 (USA-WA1/2020); test: SARS-CoV-2 infectivity titers in cell culture supernatants by plaque assay; format: cell-based; conditions: 4 µM auranofin, Huh7 cells, 48 hours after infection
[2] = tested on: IL-6, IL-1β, TNFα and NF-kB; test: mRNA expression of SARS-CoV-2-induced cytokines in Huh7 cells by qRT-PCR; format: cell-based, human
[3] = tested on: Huh7 cells; conditions: 0.1-10 µM for 48 hours, trypan blue
[4] = 4 µM auranofin, SARS-CoV-2 infected Huh7 cells

CC[P](CC)(CC)=[Au][S][C@@H]1OC(COC(C)=O)[C@@H](OC(C)=O)C(OC(C)=O)C1OC(C)=O (stereo partly drawn) [auranofin, 1-Thio-β-D-glucopyranosatotriethylphosphine gold-2,3,4,6-tetraacetate]
SARS-COV-2 infectivity titers in cell culture supernatants [1]: significantly reduced | increase in TNF-α levels (mRNA) [2]: absent | increase in the expression of IL-1β (mRNA) [2, 4]: no increase | increase in the expression of NF-kB (mRNA) [2, 4]: no increase | cytotoxic concentration of 50% [3]: approximately 5.7 µM
